This is an account of results in patent publication US5159085A, “2-anilino phenylacetic acid derivatives as inhibitors of PLA2 and lipoxygenase” (American Home Products Corporation, priority 1991, dated 1992).

For orientation: IC50 means the point on the concentration scale where inhibition reaches its midpoint. One may read the Kb as the affinity of an antagonist, worked out from how it opposes an agonist. Read a low Kb as higher antagonist affinity.

The subject of assay [1] is TxB2 synthesis (cyclooxygenase) by rat glycogen-elicited polymorphonuclear leukocytes. Description: Inhibition of TxB2 synthesis by rat glycogen-elicited PMN (cyclooxygenase). The format is cell-based, rat (female Wistar). The following applies: read-out: IC50 (TxB2 synthesis). The protocol: (§1) Rat polymorphonuclear leukocytes (PMNs) are obtained from female Wistar rats (150-200 g) which receive an injection of 6% glycogen (10 ml i.p.). Rats are sacrificed 18-24 hours post injection by CO2 asphyxiation and the elicited cells are harvested by peritoneal lavage using physiological saline (0.9% NaCl). The exudate is centrifuged at 400×g for 10 minutes. The supernatant fluid is discarded and the cell pellet is resuspended to a concentration of 2.0×10^7 cells/ml in HBSS containing Ca^++ and Mg^++ and 10 μM L-cysteine.
(§2) To 1 ml aliquots of cell suspension, test drugs or vehicle are added, then preincubated at 37° C. for 10 minutes. A 23187 (1 μM), [^3 H]-AA (3.0 μCi/ml) and unlabeled AA (1 μM) are then added and the samples are further incubated for 10 minutes. The reaction is terminated by centrifugation and pelleting cells. Supernatants are then analyzed by HPLC analysis on a 15 cm×4.6 mm ID supelcosil LC-18 (Supelco)(3M) column, using a two solvent system at a flow rate of 1.4 ml total flow as follows:
(§3) Percent solvent changes are accomplished in a linear fashion.
(§4) Injections: 150 μl of each supernatant is injected directly onto column and ^3 H arachidonic acid metabolites are monitored using an on-line radioactivity detector (Ramona, IN/US, Fairfield, NJ).
(§5) Standards: 10^4 -2.0×10^4 dpm of eicosanoids of interest are injected in 90 μl EtOH cocktail.
(§6) Co-chromatography with standard [^3 H] leukotriene B4 (LTB4) in medium of stimulated PMN exposed to drug is compared to that found in medium of stimulated cells exposed to no drug, generating percent inhibition.
(§7) Results are expressed as percent inhibition at a given compound dose or as an IC50 value.
In this assay, the procedure of Example 19 is carried out as described. However, in order to determine cyclooxygenase activity, the samples are co-chromatographed with authentic reference [^3 H]-TxB2.
The results are calculated as in Example 19 and presented below: […]

The subject of assay [2] is LTB4 synthesis by rat glycogen-elicited polymorphonuclear leukocytes (lipoxygenase). The experiment in a line: Inhibition of LTB4 synthesis by rat glycogen-elicited polymorphonuclear leukocytes (PMN). The format is cell-based, rat (female Wistar). The following applies: Rattus norvegicus, Leukocyte, A 23187 and exogenous AA.
Description: This is especially true with respect to 5,12-diHETE, which is also denoted as LTB4 [see Ford-Hitchinson, J. Roy. Soc. Med., 74, 831 (1981)]. Compounds which inhibit the PLA2 -mediated release of arachidonic acid thereby effectively prevent the oxidation of arachidonic acid to the various leukotriene products via the lipoxygenase cascade. Accordingly, the specificity of action of PLA2 inhibitors can be determined by the activity of test compounds in this assay, which measures the ability of compounds to inhibit the synthesis of LTB4 by rat glycogen-elicited polymorphonuclear leukocytes (PMN) in the presence of exogenous substrate.
The assay is carried out as follows:
as §1, §2
Gradient: (system is equillibrated with Solvent A)
as §3, §4, §5, §6, §7

Assay [3] has as its target T1, LTD4 (isolated guinea pig trachea) (Cavia porcellus, UniProt Q2NNR5).
T1 construct: the neck is opened and the trachea removed; from tissue; host or cells: tracheal rings of male Hartley guinea pigs
T1 sequence (Q2NNR5 1-340): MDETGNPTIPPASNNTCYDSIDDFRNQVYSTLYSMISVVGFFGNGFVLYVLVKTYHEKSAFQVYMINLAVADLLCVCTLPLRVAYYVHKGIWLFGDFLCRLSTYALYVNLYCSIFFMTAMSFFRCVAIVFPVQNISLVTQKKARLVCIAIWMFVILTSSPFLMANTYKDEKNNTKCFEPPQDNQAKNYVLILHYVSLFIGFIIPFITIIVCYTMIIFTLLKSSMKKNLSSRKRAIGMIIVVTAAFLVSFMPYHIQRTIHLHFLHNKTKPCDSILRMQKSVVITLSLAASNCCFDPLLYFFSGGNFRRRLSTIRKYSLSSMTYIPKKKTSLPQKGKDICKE
Description: In vitro isolated guinea pig trachea assay, LTD4 antagonist activity. Further details: species or system guinea pig (male Hartley). The note with it: Table VII. Here is the method: The LTD4 antagonist activity of the compounds of the invention is assessed in the in vitro isolated guinea pig trachea assay. This assay is carried out as follows: Male Hartley guinea pigs (350-400 g) are euthanized by a blow to the head, the neck is opened and the trachea removed. The trachea is maintained in aerated physiological salt solution, cleared of connective tissue and fat and cut into rings approximately 2 mm in width (usually containing two cartilaginous segments per ring). Two pieces of silk suture are then passed through the lumen of the tracheal ring and are tied around the cartilage, one on each side of the trachealis muscle. […] The tracheal rings are maintained at 2 g resting tension and equilibrated for 45 minutes (with frequent washing and readjustment of resting tension). […] All responses to LTD4 in an individual tissue are measured as a percentage of the reference contraction of that tissue to carbachol. LTD4 antagonist activity is determined by comparison of the concentration response curves of LTD4 in the presence and absence of antagonist. Assessment of the relative rightward shift of the antagonist treated curve relative to the solvent (control) treated tissue is calculated as a concentration ratio (Eq. A) and used in subsequent calculations to derive an antagonist pKB value (Eqs B and C). […]

Read-outs that look alike come from different tables or passages of the source.

As for `O=C(O)Cc1ccccc1Nc1c(Cl)cccc1Cl` [diclofenac, reference compound], the IC50 in assay [1] (Rattus norvegicus, Leukocyte) was 30 nM.
Regarding `O=C(O)Cc1cc(OCc2ccc3ccccc3n2)ccc1Nc1c(Cl)cccc1Cl` [Example 2, 2-[(2,6-Dichlorophenyl)amino]-5-(2-quinolylmethoxy)benzene acetic acid], the IC50 is about 10000 nM in assay [1] (rat PMN, acetic acid) and 10 nM in assay [2]. Besides, the antagonist dissociation constant (Kb) in assay [3] is 550 nM.
